For orientation: IC50 means the concentration needed to halve the response being measured.

Assay [1] deals with ER (endogenous, MCF7 cells) (Homo sapiens (Human), UniProt P03372). Nature of the assay: ER transcription assay (MCF7 cells), ERE-luciferase reporter. The class given is cell-based. An excerpt: ER Transcription Assay (MCF7 Cells)
The ER transcription assay is a reporter assay that is based on the ability of ER to induce transcription from a luciferase reporter gene containing estrogen response elements (EREs) in the promoter/enhancer region. When the reporter gene is transfected in MCF7 cells (containing endogenous ER), transcription is reflected by the level of luciferase expression.
A day before transfection, cells are split into a T75 flask at a cell density of 300,000 cells/mL (10 mL total) and allowed to attach overnight in a humidified CO2 incubator at 37° C.
Approximately 20 ug DNA is mixed in OptiMEM (Invitrogen) to a total volume of 650 μL. Following incubation, the OptiMEM-DNA mixture is added to the OptiMEM-Lipofectin mix and incubated for 15 minutes at 37° C. The DNA-Lipofectin mixture is then added directly to the T75 flask and the flask is returned to the incubator.
Normally, DMSO (used as a vehicle) is included to achieve a final concentration of 0.1% when added to the cells. Transfected cells are trypsinized, resuspended in DMEM/F12/10% charcoal-stripped serum and added to the 96-well plate at 25,000 cells/well in 90 μL of media. The plate is then returned to the incubator for 24 hours.
After incubation with compounds for 24 hours, Firefly and Renilla luciferase activities are measured to determine ER transcriptional activity. Media is removed from 96-well plates by decanting and blotting on paper towels.
One second total read time after a one second delay.
One second total read time after one second delay. If Firefly luciferase signal is high, Renilla assay must be done an hour after the Firefly assay due to incomplete squelching of Firefly signal.
(§1) The column titled MCF7 IC50 reports the inflection point of the inhibition of transcription in MCF7 cells as described above. Percentage ERα remaining reports the remaining ERα protein measured at 10 μM concentration of the ligand as described above. The column ERα IC50 reports the inflection point of the degradation in response to the ligand concentration.
Background: In a reporter assay the amount or activity of a reporter protein is the signal.

The target of a further assay is ERα (Homo sapiens (Human), UniProt P03372). Description: ERα degradation (MCF7 cells), in-cell Western. Type of assay: cell-based. To be noted: for % ERα remaining: remaining ERα protein at 10 μM ligand, relative to DMSO control; for % ERα remaining / IC50: MCF7 cells; for IC50: inflection point of the degradation in response to ligand concentration; for ER Percentage remaining: degradation potential, comparison of linker length between phenyl and -C(O)OH. Here is the method:
ERα Degradation (MCF7 Cells)
as §1

[2] abbreviates: inflection point of the inhibition of transcription in MCF7 cells, 0.1 nM estradiol, 24 hours, read-out: MCF7 IC50.
The mark [3] stands for this setting: antagonist activity, comparison of linker length between phenyl and -C(O)OH, read-out: SERD IC50 MCF7.

Where two headings read alike, the source gives them in different places.

Chain of ER (endogenous, MCF7 cells) (P03372 whole entry): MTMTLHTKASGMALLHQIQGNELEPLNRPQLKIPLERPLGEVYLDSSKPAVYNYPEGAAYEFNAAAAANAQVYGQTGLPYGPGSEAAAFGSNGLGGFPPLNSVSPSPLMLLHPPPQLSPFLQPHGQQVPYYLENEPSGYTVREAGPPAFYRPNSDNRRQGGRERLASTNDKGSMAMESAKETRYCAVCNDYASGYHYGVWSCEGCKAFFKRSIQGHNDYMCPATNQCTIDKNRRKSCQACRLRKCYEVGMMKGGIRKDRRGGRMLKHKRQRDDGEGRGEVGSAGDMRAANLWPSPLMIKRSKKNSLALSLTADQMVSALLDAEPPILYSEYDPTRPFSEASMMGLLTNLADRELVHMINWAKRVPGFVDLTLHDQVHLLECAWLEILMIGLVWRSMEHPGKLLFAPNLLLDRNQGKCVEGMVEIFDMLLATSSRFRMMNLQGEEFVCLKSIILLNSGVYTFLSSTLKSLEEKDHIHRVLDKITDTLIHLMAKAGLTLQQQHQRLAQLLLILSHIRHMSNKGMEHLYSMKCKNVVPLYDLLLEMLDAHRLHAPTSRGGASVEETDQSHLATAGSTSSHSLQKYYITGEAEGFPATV
Chain of ERα (P03372 whole entry): as above

For `CC(=O)/C=C/c1ccc(Oc2c(-c3ccc(C(F)(F)F)cc3)sc3cc(O)ccc23)cc1` [Example 121, (E)-4-(4-((6-hydroxy-2-(4-(trifluoromethyl)phenyl)benzo[b]thiophen-3-yl)oxy)phenyl)but-3-en-2-one], in assay [1] (setting [2]), the half-maximal inhibitory concentration (IC50) stood at 214 nM. The “% ERα remaining” value at ERα is listed as 56%.

As for `CC(F)(F)c1ccccc1-c1sc2cc(O)ccc2c1Oc1ccc(/C=C/C(=O)O)cc1` [Example 122, (E)-3-(4-((2-(2-(1,1-difluoroethyl)phenyl)-6-hydroxybenzo[b]thiophen-3-yl)oxy)phenyl)acrylic acid], in assay [1] (setting [2]), the 50% inhibitory concentration (IC50) is 11 nM. Besides, on ERα, the 50% inhibitory concentration (IC50) was determined as 0.2 nM and the “% ERα remaining” value is 15%.

Regarding `O=C(O)/C=C/c1ccc(Oc2c(-c3ccccc3C3COC3)sc3cc(O)ccc23)cc1` [Example 123, (E)-3-(4-((6-hydroxy-2-(2-(oxetan-3-yl)phenyl)benzo[b]thiophen-3-yl)oxy)phenyl)acrylic acid], the IC50 in assay [1] (setting [2]) was 83 nM. In addition, on ERα, inhibition was half-maximal at 1.1 nM (IC50) and the “% ERα remaining” value was 15%.

On to `Cc1cccc(C(C)C)c1-c1sc2cc(O)ccc2c1Oc1ccc(/C=C/C(=O)O)cc1` [Example 124, (E)-3-(4-((6-hydroxy-2-(2-isopropyl-6-methylphenyl)benzo[b]thiophen-3-yl)oxy)phenyl)acrylic acid], for which the figures for the half-maximal inhibitory concentration (IC50) (in assay [1] (setting [2]); on ERα) were 114 nM and 1.4 nM, respectively. In addition, the “% ERα remaining” value on ERα came to 10%.

Take `CN(C)c1ccccc1-c1sc2cc(O)ccc2c1Oc1ccc(/C=C/C(=O)O)cc1` [Example 125, (E)-3-(4-((2-(2-(dimethylamino)phenyl)-6-hydroxybenzo[b]thiophen-3-yl)oxy)phenyl)acrylic acid]: the half-maximal inhibitory concentration (IC50) in assay [1] (setting [2]) came to 124 nM. Further, at ERα, the “% ERα remaining” value is 11%.

With `O=C(O)/C=C/c1ccc(Oc2c(-c3ccccc3C3CC3)sc3cc(O)ccc23)cc1` [Example 127, (E)-3-(4-((2-(2-cyclopropylphenyl)-6-hydroxybenzo[b]thiophen-3-yl)oxy)phenyl)acrylic acid], the half-inhibitory concentration (IC50) in assay [1] (setting [2]) worked out at 208 nM; at ERα, 4.2 nM. At ERα, the “% ERα remaining” value is reported as 16%.

As to `COc1ccc(-c2sc3cc(O)ccc3c2Oc2ccc(/C=C/C(=O)O)cc2)c(C)n1` [Example 129, (E)-3-(4-((6-hydroxy-2-(6-methoxy-2-methylpyridin-3-yl)benzo[b]thiophen-3-yl)oxy)phenyl)acrylic acid], the half-maximal inhibitory concentration (IC50) in assay [1] (setting [2]) is 297 nM. Also, the “% ERα remaining” value on ERα is 22%.

Take `Cc1occc1-c1sc2cc(O)ccc2c1Oc1ccc(/C=C/C(=O)O)cc1` [Example 131, (E)-3-(4-((6-hydroxy-2-(2-methylfuran-3-yl)benzo[b]thiophen-3-yl)oxy)phenyl)acrylic acid]: the concentration for half-maximal inhibition (IC50) in assay [1] (setting [2]) was determined as 815 nM. In addition, the “% ERα remaining” value on ERα was determined as 12%.

Regarding `C#Cc1ccccc1-c1sc2cc(O)ccc2c1Oc1ccc(/C=C/C(=O)O)cc1` [Example 132, (E)-3-(4-((2-(2-ethynylphenyl)-6-hydroxybenzo[b]thiophen-3-yl)oxy)phenyl)acrylic acid], in assay [1] (setting [2]), the IC50 was 890 nM. Moreover, the “% ERα remaining” value at ERα came to 16%.

For `Cn1ccc2c(-c3sc4cc(O)ccc4c3Oc3ccc(/C=C/C(=O)O)cc3)cccc21` [Example 133, (E)-3-(4-((6-hydroxy-2-(1-methyl-1H-indol-4-yl)benzo[b]thiophen-3-yl)oxy)phenyl)acrylic acid], the IC50 in assay [1] (setting [2]) is 898 nM. Also, the “% ERα remaining” value on ERα was 17%.

With `COc1ccc(-c2sc3cc(O)ccc3c2Oc2ccc(/C=C/C(=O)O)cc2)c(C(C)C)c1` [Example 134, (E)-3-(4-((6-hydroxy-2-(2-isopropyl-4-methoxyphenyl)benzo [b]thiophen-3-yl)oxy)phenyl)acrylic acid], the IC50 amounted to 380 nM in assay [1] (setting [2]) and 403 nM against ERα. Besides, the “% ERα remaining” value on ERα came out at 12%.

For the compound `CC(C)c1ccccc1-c1sc2cc(OC(=O)C(C)(C)C)ccc2c1Oc1ccc(/C=C/C(=O)O)cc1` [Example 135, (E)-3-(4-((2-(2-isopropylphenyl)-6-(pivaloyloxy)benzo[b]thiophen-3-yl)oxy)phenyl)acrylic acid], in assay [1] (setting [2]), the concentration for half-maximal inhibition (IC50) worked out at 61 nM. In addition, the “% ERα remaining” value on ERα was found to be 19%.

In the case of `CCC(=O)Oc1ccc2c(Oc3ccc(/C=C/C(=O)O)cc3)c(-c3ccccc3C(C)C)sc2c1` [Example 136, (E)-3-(4-((2-(2-isopropylphenyl)-6-(propionyloxy)benzo[b]thiophen-3-yl)oxy)phenyl)acrylic acid], the IC50 in assay [1] (setting [2]) came out at 5.1 nM. In addition, the “% ERα remaining” value on ERα was 11%.

Turning to `CCOC(=O)/C=C/c1ccc(Oc2c(-c3ccccc3C(C)C)sc3cc(O)ccc23)cc1` [Example 137, (E)-ethyl 3-(4-((6-hydroxy-2-(2-isopropylphenyl)benzo [b]thiophen-3-yl)oxy)phenyl)acrylate], the half-inhibitory concentration (IC50) in assay [1] (setting [2]) amounted to 9 nM. Also, the “% ERα remaining” value at ERα was determined as 15%.

As for `CC(C)c1ccccc1-c1sc2cc(O)ccc2c1Oc1ccc(/C=C/C(=O)OCCN2CCOCC2)cc1` [Example 138, (E)-2-morpholinoethyl 3-(4-((6-hydroxy-2-(2-isopropylphenyl)benzo [b]thiophen-3-yl)oxy)phenyl)acrylate], the 50% inhibitory concentration (IC50) in assay [1] (setting [2]) stood at 5.8 nM. The “% ERα remaining” value at ERα turned out to be 24%.

Regarding `O=C(O)c1ccc(Oc2c(-c3ccc(O)cc3)sc3cc(O)ccc23)cc1` [reference compound], the IC50 in assay [1] (setting [3]) was determined as 10000 nM. Besides, the “ER Percentage remaining” value on ERα was 57 Percentage.

Turning to `O=C(O)CCCc1ccc(Oc2c(-c3ccc(O)cc3)sc3cc(O)ccc23)cc1` [reference compound], the 50% inhibitory concentration (IC50) in assay [1] (setting [3]) came to 10000 nM. Moreover, the “ER Percentage remaining” value at ERα came out at 55 Percentage.

The values are drawn from patent publication US10058534B2, “Benzothiophene derivatives and compositions thereof as selective estrogen receptor degraders” (NOVARTIS AG, priority 2013, dated 2018).
